Series [1] concerns Rat. Nature of the series: concentration in plasma after dosing. The conditions noted are these: 5 h; dosed: Wyeth-14643; 1.0 mg/kg; oral; Male; Sprague-Dawley.
In series [2] the test system is Rat. The series can be described thus: concentration in plasma after dosing. Conditions: dosed: Wyeth-14643, 2.0 mg/kg, oral, Male, Sprague-Dawley.
Series [3] relates to Rat. The series can be described thus: concentration in plasma after dosing. The conditions noted are these: 0.5 h; dosed: Wyeth-14643; 1.0 mg/kg; oral; Male; Sprague-Dawley.
Series [4] has as its system Rat. The series can be described thus: concentration in plasma after dosing. Conditions: dosed: Wyeth-14643, 2.0 mg/kg, oral, Male, Sprague-Dawley. This is another data set of the same source.
The test system of series [5] is Rat. The series can be described thus: concentration in heart after dosing. The conditions noted are these: 20 min; dosed: Bis 2-Chloroethoxy Methane; 20 mg/kg; iv; Female; F344.
The subject of series [6] is Rat. The series can be described thus: concentration in liver after dosing. Conditions: 4 h; dosed: Bis 2-Chloroethoxy Methane; 20 mg/kg; iv; Male; F344.
Series [7] has as its system Rat. The series can be described thus: concentration in plasma after dosing. Conditions: 4 h; dosed: Bis 2-Chloroethoxy Methane; 40 mg/kg; iv; Male; Harlan Sprague Dawley.
Series [8] concerns Rat. The series can be described thus: concentration in thymus after dosing. The conditions noted are these: 1 h; dosed: Bis 2-Chloroethoxy Methane; 20 mg/kg; iv; Female; F344.
The subject of series [9] is Rat. The series can be described thus: concentration in plasma after dosing. Conditions: 5 h; dosed: Bis 2-Chloroethoxy Methane; 20 mg/kg; iv; Female; F344.
For series [10], the system named is Rat. The series can be described thus: concentration in plasma after dosing. The conditions noted are these: 3 h; dosed: Bis 2-Chloroethoxy Methane; 20 mg/kg; iv; Female; F344.
Series [11] concerns Rat. The series can be described thus: concentration in thymus after dosing. The conditions noted are these: 20 min; dosed: Bis 2-Chloroethoxy Methane; 20 mg/kg; iv; Female; F344.
Series [12] deals with Rat. Nature of the series: concentration in brain after dosing. Conditions: 3 h; dosed: Fluorotelomer alcohol 8+2; 80 mg/kg; oral; Female; Harlan Sprague Dawley.
In series [13] the test system is Rat. Nature of the series: concentration in brain after dosing. Conditions: 0.5 h; dosed: Fluorotelomer alcohol 8+2; 24 mg/kg; oral; Male; Harlan Sprague Dawley.
The subject of series [14] is Rat. Nature of the series: concentration in liver after dosing. Conditions: 0.5 h; dosed: Fluorotelomer alcohol 8+2; 80 mg/kg; oral; Female; Harlan Sprague Dawley.
Series [15] deals with Rat. Nature of the series: concentration in kidney after dosing. Conditions: 6 h; dosed: Fluorotelomer alcohol 8+2; 80 mg/kg; oral; Female; Harlan Sprague Dawley.
For series [16], the system named is Rat. Nature of the series: concentration in plasma after dosing. The conditions noted are these: dosed: Fluorotelomer alcohol 8+2, 12 mg/kg, iv, Male, F344.
In series [17] the test system is Rat. The series can be described thus: concentration in plasma after dosing. Conditions: dosed: Fluorotelomer alcohol 8+2, 24 mg/kg, oral, Male, Harlan Sprague Dawley.
Series [18] has as its system Rat. Nature of the series: concentration in plasma after dosing. Conditions: dosed: Fluorotelomer alcohol 8+2, 12 mg/kg, oral, Male, Harlan Sprague Dawley.
The subject of series [19] is Rat. Nature of the series: concentration in plasma after dosing. Conditions: 6 h; dosed: Di-n-butyl phthalate; 20 mg/kg; iv; Male; Sprague-Dawley.
Series [20] deals with Rat. Nature of the series: concentration in plasma after dosing. Conditions: 6 h; dosed: Di-n-butyl phthalate; 50 mg/kg; oral; Male; Sprague-Dawley.
Series [21] concerns Rat. The series can be described thus: concentration in plasma after dosing. Conditions: 4 h; dosed: Di-n-butyl phthalate; 100 mg/kg; oral; Male; Sprague-Dawley.
Series [22] concerns Rat. The series can be described thus: concentration in plasma after dosing. The conditions noted are these: 5 min; dosed: Di-n-butyl phthalate; 50 mg/kg; oral; Male; Sprague-Dawley.
Series [23] relates to Rat. The series can be described thus: concentration in plasma after dosing. The conditions noted are these: 15 h; dosed: Di-n-butyl phthalate; 100 mg/kg; oral; Male; Sprague-Dawley.
Series [24] relates to Rat. Nature of the series: concentration in liver after dosing. The conditions noted are these: 24 h; dosed: Perfluorodecanoic acid; 10 mg/kg; oral; Male; Harlan Sprague Dawley.
Series [25] deals with Rat. Nature of the series: concentration in liver after dosing. Conditions: 3360 h; dosed: Perfluorodecanoic acid; 10 mg/kg; oral; Female; Harlan Sprague Dawley.
Series [26] has as its system Rat. The series can be described thus: concentration in plasma after dosing. The conditions noted are these: dosed: Perfluorodecanoic acid, 2 mg/kg, iv, Male, F344.
The test system of series [27] is Rat. The series can be described thus: concentration in kidney after dosing. Conditions: 1 h; dosed: Perfluorodecanoic acid; 10 mg/kg; oral; Male; Harlan Sprague Dawley.
In series [28] the test system is Rat. Nature of the series: concentration in plasma after dosing. The conditions noted are these: 9 h; dosed: Primidone; 130 mg/kg; oral; Female; F344.
In series [29] the test system is Rat. Nature of the series: concentration in plasma after dosing. The conditions noted are these: 6 h; dosed: Primidone; 130 mg/kg; oral; Female; F344.
For series [30], the system named is Rat. Nature of the series: concentration in plasma after dosing. Conditions: 1.5 h; dosed: Primidone; 130 mg/kg; oral; Female; F344.
The subject of series [31] is Rat. Nature of the series: concentration in plasma after dosing. Conditions: 18 h; dosed: Primidone; 30 mg/kg; oral; Female; F344.
The subject of series [32] is Rat. The series can be described thus: concentration in liver after dosing. The conditions noted are these: 4 h; dosed: Thiodiglycolic Acid; 20 mg/kg; iv; Male; Harlan Sprague Dawley.
In series [33] the test system is Rat. The series can be described thus: concentration in liver after dosing. Conditions: 40 min; dosed: Thiodiglycolic Acid; 20 mg/kg; iv; Female; Harlan Sprague Dawley.
Series [34] has as its system Rat. The series can be described thus: concentration in thymus after dosing. Conditions: 6.667 h; dosed: Thiodiglycolic Acid; 20 mg/kg; iv; Female; Harlan Sprague Dawley.
Series [35] deals with Rat. The series can be described thus: concentration in plasma after dosing. The conditions noted are these: 10 min; dosed: dichloroacetic acid; 10 mg/kg; iv; Male; F344.
Series [36] deals with Rat. The series can be described thus: concentration in plasma after dosing. The conditions noted are these: 20 min; dosed: dichloroacetic acid; 10 mg/kg; oral; Male; Harlan Sprague Dawley.
For series [37], the system named is Rat. The series can be described thus: concentration in plasma after dosing. Conditions: dosed: dichloroacetic acid, 100 mg/kg, oral, Male, F344.

Regarding `Cc1cccc(Nc2cc(Cl)nc(SCC(=O)O)n2)c1C`, the concentration in plasma was determined as 118 ng/mL in series [1]; 904 ng/mL in [2] (1 h); 200 ng/mL in series [2] (6 h); 1210 ng/mL in series [3]; 1230 ng/mL in series [4] (0.5 h); 529 ng/mL in [4] (5 h).
On to `ClCCOCOCCCl` [Bis 2-Chloroethoxy Methane], for which, in series [5], the concentration in heart came to 6800 ng/g. In series [6], this compound gave a concentration in liver of 161 ng/g. For the same compound, the concentration in plasma came to 238 ng/mL in series [7], 24.8 ng/mL in series [9] and 65.2 ng/mL in series [10]. In addition, the concentration in thymus in series [8] stood at 2300 ng/g; in series [11], 26100 ng/g.
Regarding `OCCC(F)(F)C(F)(F)C(F)(F)C(F)(F)C(F)(F)C(F)(F)C(F)(F)C(F)(F)F` [Fluorotelomer alcohol 8+2], the concentration in brain in series [12] was determined as 7770 ng/g; in [13] it was 1810 ng/g. The concentration in liver in series [14] came out at 15900 ng/g. Moreover, the concentration in kidney in series [15] was 905 ng/g. In addition, the concentration in plasma in series [16] (0.25 h) came out at 1430 ng/mL; in [16] (24 h) it was 10.2 ng/mL; in [17] (0.25 h) it was 176 ng/mL; in [17] (24 h) it was 3.78 ng/mL; in series [18] (1 h), 255 ng/mL; in series [18] (24 h) it was 3.4 ng/mL.
With `CCCCOC(=O)c1ccccc1C(=O)O` [Mono-n-butyl phthalate], the concentration in plasma in series [19] is 1110 ng/mL; in series [20], 2060 ng/mL; in [21], 10200 ng/mL; in series [22] it was 4780 ng/mL; in [23] it was 1250 ng/mL.
With `O=C(O)C(F)(F)C(F)(F)C(F)(F)C(F)(F)C(F)(F)C(F)(F)C(F)(F)C(F)(F)C(F)(F)F` [Perfluorodecanoic acid], the results for the concentration in liver in [24] and in [25] were 105000 ng/g and 7670 ng/g, respectively. Besides, the concentration in plasma in series [26] (24 h) amounted to 4280 ng/mL; in series [26] (1848 h) it was 646 ng/mL. This compound showed a concentration in kidney in [27] of 8630 ng/g.
Take `CCC1(c2ccccc2)C(=O)NC(=O)NC1=O` [Phenobarbital]: the concentration in plasma in series [28] was found to be 2440 ng/mL; in series [29] it was 2330 ng/mL; in [30] it was 990 ng/mL; in series [31], 1060 ng/mL.
As to `O=C(O)CSCC(=O)O` [Thiodiglycolic Acid], the concentration in liver in series [32] is 70900 ng/g; in [33] it was 92500 ng/g. Besides, in series [34], the concentration in thymus came out at 335 ng/g.
With `O=C(O)C(Cl)Cl` [dichloroacetic acid], the concentration in plasma in series [35] stood at 7780 ng/mL; in series [36], 680 ng/mL; in [37] (20 min), 20400 ng/mL; in [37] (8 h) it was 29200 ng/mL.
